Test results published in PubChem BioAssay AID2060503 (Molecular Pharmacology Branch, DTP, NCI, 2025).
pIC50: −log10 of the molar value.

Tested on: 817829-284-R-J1-PDC complex spheroids, viability
Experiment: Anticancer human tumor 817829-284-R-J1-PDC patient-derived colon adenocarcinoma cell line growth inhibition [GQUAD]
Settings: for pIC50: curve of first compound; for viability, T/C: stronger effect = lower value; active means viability on the fitted dose curve at most 10% of control; inactive means the rest
Procedure, shortened: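 Tumor cells were grown as complex spheroids with HUVEC endothelial cells and mesenchymal stem cells as stroma. G-quadruplex stabilizers were combined with targeted agents over half-log dilutions from near the clinical Cmax, or from 10 microM.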

[1] = second compound 0.0316 µM, first compound 0.0316 µM
[2] = second compound 0.0316 µM, first compound 0.1 µM
[3] = second compound 0.0316 µM, first compound 0.316 µM
[4] = second compound 0.0316 µM, first compound 1 µM
[5] = second compound 0.0316 µM, first compound 3.16 µM
[6] = second compound 0.0316 µM, first compound 10 µM
[7] = second compound 0.1 µM, first compound 0.0316 µM
[8] = second compound 0.1 µM, first compound 0.1 µM
[9] = second compound 0.1 µM, first compound 0.316 µM
[10] = second compound 0.1 µM, first compound 1 µM
[11] = second compound 0.1 µM, first compound 3.16 µM
[12] = second compound 0.1 µM, first compound 10 µM
[13] = second compound 0.316 µM, first compound 0.0316 µM
[14] = second compound 0.316 µM, first compound 0.1 µM
[15] = second compound 0.316 µM, first compound 0.316 µM
[16] = second compound 0.316 µM, first compound 1 µM
[17] = second compound 0.316 µM, first compound 3.16 µM
[18] = second compound 0.316 µM, first compound 10 µM
[19] = second compound 1 µM, first compound 0.0316 µM
[20] = second compound 1 µM, first compound 0.1 µM
[21] = second compound 1 µM, first compound 0.316 µM
[22] = second compound 1 µM, first compound 1 µM
[23] = second compound 1 µM, first compound 3.16 µM
[24] = second compound 1 µM, first compound 10 µM
[25] = second compound 3.16 µM, first compound 0.0316 µM
[26] = second compound 3.16 µM, first compound 0.1 µM
[27] = second compound 3.16 µM, first compound 0.316 µM
[28] = second compound 3.16 µM, first compound 1 µM
[29] = second compound 3.16 µM, first compound 3.16 µM
[30] = second compound 3.16 µM, first compound 10 µM
[31] = second compound 10 µM, first compound 0.0316 µM
[32] = second compound 10 µM, first compound 0.1 µM
[33] = second compound 10 µM, first compound 0.316 µM
[34] = second compound 10 µM, first compound 1 µM
[35] = second compound 10 µM, first compound 3.16 µM
[36] = second compound 10 µM, first compound 10 µM
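Further: spheroids exposed to agents for 7 days before readout.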
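Wherever viability, T/C is given: percent viability relative to DMSO vehicle control taken as 100%.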

CC1COCCN1c1cc(C2(O)CC3CCC(C2)O3)c2cnn(-c3ccn[nH]3)c2n1 (stereo not drawn) + Cc1[nH]c2ccc(F)cc2c1-c1nc2c3cccnc3c3ncccc3c2[nH]1
inactive: viability, T/C [1] 40.4% | viability, T/C [2] 9.87% | viability, T/C [7] 32% | viability, T/C [8] 12.5% | viability, T/C [13] 28.5% | viability, T/C [14] 13.2% | viability, T/C [19] 30.4% | viability, T/C [20] 11.7% | viability, T/C [25] 19.1%
> 7.50: pIC50 (second compound 0.0316 µM) | pIC50 (second compound 0.1 µM) | pIC50 (second compound 0.316 µM) | pIC50 (second compound 1 µM) | pIC50 (second compound 3.16 µM) | pIC50 (second compound 10 µM)
active: viability, T/C [3] 7.43% | viability, T/C [4] 5.2% | viability, T/C [5] 5.12% | viability, T/C [6] 3.63% | viability, T/C [9] 7.69% | viability, T/C [10] 6.04% | viability, T/C [11] 5.1% | viability, T/C [12] 3.62% | viability, T/C [15] 6.99% | viability, T/C [16] 5.84% | viability, T/C [17] 5.13% | viability, T/C [18] 3.71% | viability, T/C [21] 7.32% | viability, T/C [22] 6.4% | viability, T/C [23] 4.91% | viability, T/C [24] 3.49% | viability, T/C [26] 6.27% | viability, T/C [27] 4.26% | viability, T/C [28] 3.69% | viability, T/C [29] 3.38% | viability, T/C [30] 1.97% | viability, T/C [31] 6.89% | viability, T/C [32] 2.8% | viability, T/C [33] 4.24% | viability, T/C [34] 2.85% | viability, T/C [35] 2.85% | viability, T/C [36] 1.69%

COc1ccc([C@@H](O)c2cc(-c3ncnc4cc(N5CCOCC5)ccc34)c(F)cc2Cl)nn1 + Cc1[nH]c2ccc(F)cc2c1-c1nc2c3cccnc3c3ncccc3c2[nH]1
inactive: viability, T/C [1] 110% | viability, T/C [2] 81.3% | viability, T/C [3] 103% | viability, T/C [4] 79.8% | viability, T/C [5] 87.4% | viability, T/C [6] 53.6% | viability, T/C [7] 92.1% | viability, T/C [8] 111% | viability, T/C [9] 93.4% | viability, T/C [10] 99.7% | viability, T/C [11] 84.1% | viability, T/C [12] 51.4% | viability, T/C [13] 82.2% | viability, T/C [14] 111% | viability, T/C [15] 115% | viability, T/C [16] 97.8% | viability, T/C [17] 81.5% | viability, T/C [18] 51.6% | viability, T/C [19] 96.5% | viability, T/C [20] 111% | viability, T/C [21] 132% | viability, T/C [22] 90% | viability, T/C [23] 72.6% | viability, T/C [24] 48.3% | viability, T/C [25] 102% | viability, T/C [26] 79% | viability, T/C [27] 103% | viability, T/C [28] 65.5% | viability, T/C [29] 45.1% | viability, T/C [30] 26% | viability, T/C [31] 41.2% | viability, T/C [32] 82.5% | viability, T/C [33] 45.6% | viability, T/C [34] 29.6% | viability, T/C [35] 33% | viability, T/C [36] 7.18%
5.01: pIC50 (second compound 1 µM)
6.47: pIC50 (second compound 10 µM)
< 5.00: pIC50 (second compound 0.0316 µM) | pIC50 (second compound 0.1 µM) | pIC50 (second compound 0.316 µM)
5.65: pIC50 (second compound 3.16 µM)

Cn1ncnc1[C@H]1c2n[nH]c(=O)c3cc(F)cc(c23)N[C@@H]1c1ccc(F)cc1 + Cc1[nH]c2ccc(F)cc2c1-c1nc2c3cccnc3c3ncccc3c2[nH]1
6.83: pIC50 (second compound 3.16 µM)
< 6.50: pIC50 (second compound 0.0316 µM) | pIC50 (second compound 0.1 µM) | pIC50 (second compound 0.316 µM) | pIC50 (second compound 1 µM)
inactive: viability, T/C (second compound 0.0316 µM, first compound 0.000999 µM) 93.8% | viability, T/C (second compound 0.0316 µM, first compound 0.00316 µM) 88.8% | viability, T/C (second compound 0.0316 µM, first compound 0.00999 µM) 95.5% | viability, T/C [1] 82.2% | viability, T/C (second compound 0.0316 µM, first compound 0.0999 µM) 96.1% | viability, T/C [3] 74.7% | viability, T/C (second compound 0.1 µM, first compound 0.000999 µM) 93.5% | viability, T/C (second compound 0.1 µM, first compound 0.00316 µM) 109% | viability, T/C (second compound 0.1 µM, first compound 0.00999 µM) 94.5% | viability, T/C [7] 106% | viability, T/C (second compound 0.1 µM, first compound 0.0999 µM) 89.2% | viability, T/C [9] 76.3% | viability, T/C (second compound 0.316 µM, first compound 0.000999 µM) 83.9% | viability, T/C (second compound 0.316 µM, first compound 0.00316 µM) 115% | viability, T/C (second compound 0.316 µM, first compound 0.00999 µM) 102% | viability, T/C [13] 105% | viability, T/C (second compound 0.316 µM, first compound 0.0999 µM) 86.5% | viability, T/C [15] 69.6% | viability, T/C (second compound 1 µM, first compound 0.000999 µM) 82.6% | viability, T/C (second compound 1 µM, first compound 0.00316 µM) 108% | viability, T/C (second compound 1 µM, first compound 0.00999 µM) 116% | viability, T/C [19] 103% | viability, T/C (second compound 1 µM, first compound 0.0999 µM) 80% | viability, T/C [21] 68.4% | viability, T/C (second compound 3.16 µM, first compound 0.000999 µM) 89.1% | viability, T/C (second compound 3.16 µM, first compound 0.00316 µM) 90.6% | viability, T/C (second compound 3.16 µM, first compound 0.00999 µM) 87.5% | viability, T/C [25] 83.2% | viability, T/C (second compound 3.16 µM, first compound 0.0999 µM) 54.6% | viability, T/C [27] 41.1% | viability, T/C (second compound 10 µM, first compound 0.000999 µM) 69.3% | viability, T/C (second compound 10 µM, first compound 0.00316 µM) 73.9% | viability, T/C (second compound 10 µM, first compound 0.00999 µM) 76.3% | viability, T/C [31] 75.8% | viability, T/C (second compound 10 µM, first compound 0.0999 µM) 44.3% | viability, T/C [33] 24.1%
7.10: pIC50 (second compound 10 µM)

O=C(c1cc(Cc2n[nH]c(=O)c3ccccc23)ccc1F)N1CCN(C(=O)C2CC2)CC1 + Cc1[nH]c2ccc(F)cc2c1-c1nc2c3cccnc3c3ncccc3c2[nH]1
5.97: pIC50 (second compound 10 µM)
5.38: pIC50 (second compound 3.16 µM)
inactive: viability, T/C [1] 103% | viability, T/C [2] 85.7% | viability, T/C [3] 106% | viability, T/C [4] 87.3% | viability, T/C [5] 97.2% | viability, T/C [6] 63.3% | viability, T/C [7] 94% | viability, T/C [8] 109% | viability, T/C [9] 88.3% | viability, T/C [10] 98.8% | viability, T/C [11] 95.5% | viability, T/C [12] 60% | viability, T/C [13] 97.7% | viability, T/C [14] 99.7% | viability, T/C [15] 97.9% | viability, T/C [16] 96.6% | viability, T/C [17] 95.4% | viability, T/C [18] 60.8% | viability, T/C [19] 85.9% | viability, T/C [20] 115% | viability, T/C [21] 97.8% | viability, T/C [22] 97.4% | viability, T/C [23] 89.4% | viability, T/C [24] 62% | viability, T/C [25] 98.9% | viability, T/C [26] 98.5% | viability, T/C [27] 97.3% | viability, T/C [28] 93.8% | viability, T/C [29] 54.5% | viability, T/C [30] 35.6% | viability, T/C [31] 45.4% | viability, T/C [32] 46.9% | viability, T/C [33] 56.7% | viability, T/C [34] 54.7% | viability, T/C [35] 37.6% | viability, T/C [36] 20.7%
< 5.00: pIC50 (second compound 0.0316 µM) | pIC50 (second compound 0.1 µM) | pIC50 (second compound 0.316 µM) | pIC50 (second compound 1 µM)
